Results taken from ChEMBL document CHEMBL2029240 (ACS Med Chem Lett, 2011).

Columns and labels:
[1] = target: Voltage-gated inwardly rectifying potassium channel KCNH2 (Homo sapiens, UniProt Q12809); experiment: Displacement of [3H]dofetilide from human ERG
[2] = target: hERG (KCNH2) (Homo sapiens, UniProt Q12809); experiment: Inhibition of human ERG at 10 uM by patch clamp assay
[3] = target: T1, C-C chemokine receptor type 2 (Homo sapiens, UniProt P41597)
Description: Displacement of [125I]MCP1 from human CCR2 in PBMC after 30 mins by gamma counting

[4] = target: T1, C-C chemokine receptor type 2; experiment: Antagonist activity at CCR2 receptor in human whole blood assessed as inhibition of alexa-tagged MCP-induced effect 30 mins by flow cytometry; format: functional, tissue-based

Chain of Voltage-gated inwardly rectifying potassium channel KCNH2 (Q12809 whole entry): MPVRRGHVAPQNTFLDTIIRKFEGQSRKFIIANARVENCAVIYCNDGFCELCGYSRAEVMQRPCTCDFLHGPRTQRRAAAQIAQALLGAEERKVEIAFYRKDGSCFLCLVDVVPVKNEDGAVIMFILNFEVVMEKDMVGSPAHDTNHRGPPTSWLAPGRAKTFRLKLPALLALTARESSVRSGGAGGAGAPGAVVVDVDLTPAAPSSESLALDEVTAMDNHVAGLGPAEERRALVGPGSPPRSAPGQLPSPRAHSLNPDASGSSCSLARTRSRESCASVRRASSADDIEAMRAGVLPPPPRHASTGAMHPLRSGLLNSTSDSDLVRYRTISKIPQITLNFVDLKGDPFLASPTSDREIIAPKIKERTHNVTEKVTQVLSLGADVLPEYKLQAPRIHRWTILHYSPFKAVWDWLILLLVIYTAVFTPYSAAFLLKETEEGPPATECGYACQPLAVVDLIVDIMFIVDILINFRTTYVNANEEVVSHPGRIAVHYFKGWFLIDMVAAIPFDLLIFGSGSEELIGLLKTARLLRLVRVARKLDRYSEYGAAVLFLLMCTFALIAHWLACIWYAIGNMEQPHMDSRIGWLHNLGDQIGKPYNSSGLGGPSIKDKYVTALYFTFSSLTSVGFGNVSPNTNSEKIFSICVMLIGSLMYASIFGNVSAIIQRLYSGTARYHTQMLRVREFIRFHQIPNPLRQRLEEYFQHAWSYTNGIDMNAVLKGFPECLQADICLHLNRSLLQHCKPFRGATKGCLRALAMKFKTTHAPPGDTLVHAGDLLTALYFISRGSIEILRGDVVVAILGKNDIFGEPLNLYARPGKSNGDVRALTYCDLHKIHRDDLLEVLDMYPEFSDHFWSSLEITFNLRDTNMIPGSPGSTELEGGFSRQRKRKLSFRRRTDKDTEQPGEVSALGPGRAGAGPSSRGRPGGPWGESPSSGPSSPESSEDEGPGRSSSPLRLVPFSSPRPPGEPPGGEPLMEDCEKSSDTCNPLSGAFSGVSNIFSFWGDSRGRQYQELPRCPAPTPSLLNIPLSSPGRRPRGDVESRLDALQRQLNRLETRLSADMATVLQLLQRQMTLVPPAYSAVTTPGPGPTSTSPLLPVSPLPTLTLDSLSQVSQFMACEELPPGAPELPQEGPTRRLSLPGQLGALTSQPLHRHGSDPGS
T1 sequence (P41597 whole entry): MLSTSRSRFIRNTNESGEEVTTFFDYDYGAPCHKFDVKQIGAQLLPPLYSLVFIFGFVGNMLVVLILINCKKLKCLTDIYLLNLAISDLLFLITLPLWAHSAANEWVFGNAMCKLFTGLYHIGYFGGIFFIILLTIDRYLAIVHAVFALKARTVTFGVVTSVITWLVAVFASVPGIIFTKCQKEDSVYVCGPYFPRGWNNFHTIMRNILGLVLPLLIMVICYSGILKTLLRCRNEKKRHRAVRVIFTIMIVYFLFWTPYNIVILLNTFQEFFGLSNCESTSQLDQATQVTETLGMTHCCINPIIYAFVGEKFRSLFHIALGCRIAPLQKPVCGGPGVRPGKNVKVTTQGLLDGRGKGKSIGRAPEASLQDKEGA
Chain of hERG (KCNH2) (Q12809 whole entry): as the sequence (Q12809 whole entry) above

Row | Structure (SMILES) | IC50 [1] [µM] | inhibition at 10 µM [2] [%] | IC50 [3] [µM] | IC50 [4] [µM]
1 | O=C(NCC(=O)N1CC[C@H](N[C@H]2CC[C@@](O)(c3ccc(-c4cnccn4)cn3)CC2)C1)c1cccc(C(F)(F)F)c1 | > 30 | 70 | – | –
2 | O=C(NCC(=O)N1CC[C@H](N[C@H]2CC[C@@](O)(c3ccc(-c4nccs4)cn3)CC2)C1)c1cccc(C(F)(F)F)c1 | > 30 | 85 | – | –
3 | O=C(C1CCN(c2cccc(C(F)(F)F)c2)CC1)N1CC[C@H](N[C@H]2CC[C@@](O)(c3ccc(-c4ncccn4)cn3)CC2)C1 | 9 | – | 0.0036 | 0.037
4 | O=C(C1CCN(c2cccc(C(F)(F)F)n2)CC1)N1CC[C@H](N[C@H]2CC[C@@](O)(c3ccc(-c4ncccn4)cn3)CC2)C1 | – | – | 0.0045 | 0.088
5 | O=C(C1CCN(c2cc(C(F)(F)F)ccn2)CC1)N1CC[C@H](N[C@H]2CC[C@@](O)(c3ccc(-c4ncccn4)cn3)CC2)C1 | 28 | – | 0.0033 | 0.012
